The subject of test [1] is Apomorphine-Induced Emesis. Nature of the test: Antagonism of Apomorphine-Induced Emesis in Dogs. Conditions: Canis lupus familiaris, sc, read-out: Antagonism of Apomorphine-Induced Emesis in the Dog ED50. It counts as in vivo, beagle dogs. The method, then: Unfasted beagle dogs of both sexes were used as test subjects. Test compounds and apomorphine were each administered subcutaneously as aqueous solutions, with the test compound being administered 30 minutes prior to the administration of the apormorphine.
Apomorphine was administered at a dose of 0.3 mg/kg. […] All tests were run in at least two dogs.

The next test has as its system Cisplatin-Induced Emesis. The experiment in a line: Antagonism of Cisplatin-Induced Emesis in the Ferret. It counts as in vivo, Fitch ferrets. Conditions: Mustela putorius, iv, 4 h, read-out: Antagonism of Cisplatin-Induced Emesis in the Ferret, % Protection. An excerpt: The ventral and dorsal area of the neck is shaved and a 3 cm incision is made. The left jugular vein is exposed and ligated with a silk suture at the cephalic end. The indwelling catheter is constructed of Silastic tubing 18 cm in length (0.020 inch I.D.×0.037 inch O.D.) with a 2 cm polyethylene sleeve (0.045 inch I.D.×0.062 inch O.D.) filled with heparin (1000 units/ml) and sealed at the exposed end with a 23 gauge×1 inch needle crimped at both ends. A small cut is made in the jugular and the catheter inserted, allowing the free end to be delivered through a 13 gauge×5 cm trochar under the skin and attached to the nape of the neck with a silk suture. The ferrets are housed in individual cages and allowed 2-4 days recovery before testing. On the test day, the test compounds were administered i.v. […] The cisplatin solution was prepared by adding 70° C. physiological saline, stirring and sonicating until dissolved. The resulting solution (4 mg/ml) was maintained at 40° C. and administered i.v. ([…]) via the catheter. Following administration of cisplatin, the ferrets were observed continuously for four hours and emetic episodes recorded. Two or more emetic episodes within a one-minutes period was considered as a single episode. The ferrets were euthanized with T-61 i.v. at the termination of the experiment, and proper placement of the catheter was verified.

For test [2], the system named is field-stimulated guinea pig ileum. The experiment in a line: Gastrokinetic Activity: contraction of field-stimulated guinea pig ileum preparations. The following applies: Cavia porcellus. Also noted: species or system guinea pig (Hartley). The method, then: This activity is considered to be correlated with gastrokinetic (prokinetic) activity in vivo, i.e. enhancement of gastric motility and gastric emptying.
Normal, male guinea pigs (Hartley; Charles River) weighing […] are sacrificed by cervical dislocation. The terminal portion of the ileum was removed after discarding a 10 cm segment nearest to the ileocecal junction. The strips, 3-4 cm in length, were mounted in a 20 ml organ bath containing Krebs physiological buffer solution. The buffer was bubbled with 95% O2 -5% CO2 and kept at 37° C. The resting tension was adjusted to 1.0 g, and the tissues were equilibrated without stimulation for 15 minutes. For electrical stimulation, a platinum wire (cathode) was threaded up through the lumen and another platinum wire (anode) was attached to the glass rod that suspended the muscle. Tissues were stimulated coaxially at 1.5 times the voltage necessary to produce maximum twitch height, with single pulses, 0.5 msec in duration, delivered once every 10 seconds. After the 15 minute equilibration period (without stimulation), the stimulator (Grass S88 Stimulator) was turned on and the tissues were allowed to stabilize for approximately 1 hour, or until the twitch height remained constant, with washes every 20 minutes.

The mark [3] stands for this setting: s.c. 30 minutes prior to apomorphine 0.3 mg/kg, dog.

The structures appear in SMILES notation. Where a name gives a salt, the structure may show the parent alone. Read-outs that look alike come from different tables or passages of the source.

As a reminder, the ED50 is the midpoint of the dose-response relation. For orientation: EC30 means the concentration at which the effect reaches the 30% level. As usually defined, the EC50 is the concentration at which the effect is half-maximal.

Turning to `CCN(CC)CCNC(=O)c1cc(Cl)c(N)cc1OC(C)C(C)O` (mixture of isomers) [Example 41, 4-Amino-5-chloro-N-[2-(diethylamino)ethyl]-2-[(2-hydroxy)but-3-yl]oxybenzamide (mixture of threo and erythro isomers)], the ED50 in test [1] (setting [3]) was over 3 mg/kg. For the same compound, in the test on Cisplatin-Induced Emesis (3 mg/kg, i.v. × 2), the inhibition in vivo at 3 mg/kg worked out at 81%.
For `O=c1[nH]c2ccccc2n1CCCN1CCC(n2c(=O)[nH]c3cc(Cl)ccc32)CC1` [Domperidone, reference compound], the ED50 in test [1] amounted to 0.2 mg/kg. Moreover, in the test with Cisplatin-Induced Emesis, the inhibition in vivo at 3 mg/kg came to 50%.
For the compound `CCN(CC)CCNC(=O)c1cc(Cl)c(N)cc1OCCOC` [Example 1, 4-Amino-5-chloro-N-[2-(diethylamino)ethyl]-2-(2-methoxyethoxy)benzamide], the ED50 in test [1] (setting [3]) was over 3 mg/kg. Also, the inhibition in vivo at 3 mg/kg in the test with Cisplatin-Induced Emesis (3 mg/kg, i.v. × 2) came to 76%.
For the compound `CCN(CC)CCNC(=O)c1cc(Cl)c(N)cc1OCCO` [Example 2, 4-Amino-5-chloro-N-[2-(diethylamino)ethyl]-2-(2-hydroxyethoxy)benzamide], in test [1] (setting [3]), the 50% effective dose (ED50) was over 3 mg/kg. Moreover, the inhibition in vivo at 3 mg/kg with Cisplatin-Induced Emesis (3 mg/kg, i.v. × 2) is 68%.
As for `CCN(CC)CCNC(=O)c1cc(Cl)c(N)cc1OCC(OC)OC` [Example 3, 4-Amino-5-chloro-N-[2-(diethylamino)ethyl]-2-(2,2-dimethoxyethoxy)benzamide], in test [1] (setting [3]), the ED50 was over 3 mg/kg. Besides, the inhibition in vivo at 3 mg/kg with Cisplatin-Induced Emesis (3 mg/kg, i.v. × 2) was 82%.
As for `CCN(CC)CCNC(=O)c1cc(Cl)c(N)cc1OCC(C)=O` [Example 5, 4-Amino-5-chloro-N-[2-(diethylamino)ethyl]-2-(2-propanon-1-yl)oxybenzamide], the ED50 in test [1] (setting [3]) is over 3 mg/kg. The inhibition in vivo at 3 mg/kg in the test on Cisplatin-Induced Emesis (3 mg/kg, i.v. × 2) turned out to be 90%.
With `CCN(CC)CCNC(=O)c1cc(Cl)c(N)cc1OCC(=O)c1ccccc1` [Example 6, 4-Amino-2-(2-phenyl-2-oxoethoxy)-5-chloro-N-[2-(diethylamino)ethyl]benzamid], the ED50 in test [1] (setting [3]) was over 3 mg/kg. Further, the inhibition in vivo at 3 mg/kg with Cisplatin-Induced Emesis (3 mg/kg, i.v. × 2) turned out to be 100%.
On the same counts, the results for `CCN(CC)CCNC(=O)c1cc(Cl)c(N)cc1OC(C)C(C)=O` (centres unmarked) [Example 7, 4-Amino-2-(butan-2-on-3-yl)oxy-5-chloro-N-[2-(diethylamino)ethyl]benzamide] are over 3 mg/kg and 95%.
Regarding `CCN(CC)CCNC(=O)c1cc(Cl)c(N)cc1OC1CCCCC1=O` (centres unmarked) [Example 9, 4-Amino-5-chloro-2-(cyclohexanon-2-yl)oxy-N-[2-(diethylamino)ethyl]benzamide], the ED50 in test [1] (setting [3]) is over 3 mg/kg. For the same compound, in the test on Cisplatin-Induced Emesis (3 mg/kg, i.v. × 2), the inhibition in vivo at 3 mg/kg is 100%.
On the same counts, the results for `CCN(CC)CCNC(=O)c1cc(Cl)c(N)cc1OCC(C)=NO` [Example 10, 4-Amino-5-chloro-N-[2-(diethylamino)ethyl]-2-[(2-hydroxyimino)propan-1-yl]oxybenzamide] are over 3 mg/kg and 100%.
As for `CCN(CC)CCNC(=O)c1cc(Cl)c(N)cc1OCC(C)O` (centres unmarked) [Example 12, 4-Amino-5-chloro-N-[2-(diethylamino)ethyl]-2-(2-hydroxypropan-1-yl)oxybenzamide], the ED50 in test [1] (setting [3]) was over 3 mg/kg. In addition, in the test on Cisplatin-Induced Emesis (3 mg/kg, i.v. × 2), the inhibition in vivo at 3 mg/kg came to 86%.
With `CCN(CC)CCNC(=O)c1cc(Cl)c(N)cc1OCC#N` [Example 13, 4-Amino-5-chloro-2-cyanomethoxy-N-[2-(diethylamino)ethyl]benzamide], in test [1] (setting [3]), the ED50 is over 3 mg/kg. The inhibition in vivo at 3 mg/kg with Cisplatin-Induced Emesis (3 mg/kg, i.v. × 2) came out at 90%.
On the same counts, the results for `CCN(CC)CCNC(=O)c1cc(Cl)c(N)cc1OCC(=O)OC` [Example 15, 4-Amino-5-chloro-N-[2-(diethylamino)ethyl]-2-(2-methoxy-2-oxoethoxy)benzamide] are over 3 mg/kg and 30%.
Regarding `CN(C)CCNC(=O)c1cc(Cl)c(N)cc1O` [Example 17, 4-Amino-5-chloro-N-[2-(dimethylamino)ethyl]-2-hydroxybenzamide], the activation at 10 µM in test [2] (at 10 μM, read-out: Average % Maximum Increase) amounted to 41%. Moreover, the EC30 in test [2] (effective concentration30, read-out: EC30 (95% C.L.)) was 5.4 µM. For the same compound, in test [2] (effective concentration50, read-out: EC50 (95% C.L.)), the EC50 was found to be 15 µM. Moreover, in test [2] (read-out: Minimum Effective Concentration), the minimal effective concentration is 0.3 µM.
Turning to `CCN(CC)CCNC(=O)c1cc(Cl)c(N)cc1OCC1COC(C)(C)O1` (centres unmarked) [Example 18, 4-Amino-5-chloro-N-[2-(diethylamino)ethyl]-2-(2,2-dimethyl-1,3-dioxalan-4-yl)methoxybenzamide], the ED50 in test [1] (setting [3]) was over 3 mg/kg. In addition, in the test with Cisplatin-Induced Emesis (3 mg/kg, i.v. × 2), the inhibition in vivo at 3 mg/kg turned out to be 72%.
Turning to `C=CCC(Oc1cc(N)c(Cl)cc1C(=O)NCCN(CC)CC)C(C)=O` (centres unmarked) [Example 24, 4-Amino-5-chloro-N-[2-(diethylamino)ethyl]-2-(5-hexan-2-on-3-yl)oxybenzamide hydrochloride], the ED50 in test [1] (setting [3]) is over 3 mg/kg. The inhibition in vivo at 3 mg/kg in the test on Cisplatin-Induced Emesis (3 mg/kg, i.v. × 2) came to 67%.
For the compound `CCC(Oc1cc(N)c(Cl)cc1C(=O)NCCN(CC)CC)C(C)=O` (centres unmarked) [Example 25, 4-Amino-5-chloro-N-[2-(diethylamino)ethyl]-2-(pentan-2-on-3-yl)oxybenzamide], the ED50 in test [1] (setting [3]) was over 3 mg/kg. The inhibition in vivo at 1 mg/kg in the test on Cisplatin-Induced Emesis (i.v. × 2) amounted to 58%.
Take `CCC(=O)COc1cc(N)c(Cl)cc1C(=O)NCCN(CC)CC` [Example 26, 4-Amino-2-(2-butanon-1-yl)oxy-5-chloro-N-[2-(diethylamino)-ethyl]benzamide]: in test [1] (setting [3]), the ED50 was over 3 mg/kg. In addition, the inhibition in vivo at 3 mg/kg with Cisplatin-Induced Emesis (3 mg/kg, i.v. × 2) worked out at 90%.
Consider `CCCC(=O)COc1cc(N)c(Cl)cc1C(=O)NCCN(CC)CC` [Example 27, 4-Amino-5-chloro-N-[2-(diethylamino)ethyl]-2-(pentan-2-on-1-yl)oxybenzamide], for which the 50% effective dose (ED50) in test [1] (setting [3]) is over 3 mg/kg. Besides, the inhibition in vivo at 1 mg/kg in the test with Cisplatin-Induced Emesis (i.v. × 2) turned out to be 90%.
In the case of `CCC(=O)C(C)Oc1cc(N)c(Cl)cc1C(=O)NCCN(CC)CC.Cl` (centres unmarked) [Example 28, 4-Amino-5-chloro-2-(pentan-3-on-2-yl)oxy-N-(2-diethylaminoethyl)benzamide hydrochloride], the ED50 in test [1] (setting [3]) is over 3 mg/kg. The inhibition in vivo at 1 mg/kg in the test with Cisplatin-Induced Emesis (i.v. × 2) was found to be 82%.
Turning to `CCN(CC)CCNC(=O)c1cc(Cl)c(N)cc1OCC(=O)C(C)C` [Example 29, 4-Amino-5-chloro-N-[2-(diethylamino)ethyl]-2-[(3-methyl)-butan-2-on-1-yl]oxybenzamide], in test [1] (setting [3]), the ED50 is over 3 mg/kg. Further, the inhibition in vivo at 1 mg/kg with Cisplatin-Induced Emesis (i.v. × 2) came to 44%.
Take `CCN(CC)CCNC(=O)c1cc(Cl)c(N)cc1OCC(=O)Cc1ccccc1` [Example 30, 4-Amino-5-chloro-N-[2-(diethylamino)ethyl]-2-(3-phenyl-2-propanon-1-yl)oxybenzamide]: the ED50 in test [1] (setting [3]) was over 3 mg/kg. Besides, in the test with Cisplatin-Induced Emesis (3 mg/kg, i.v. × 2), the inhibition in vivo at 3 mg/kg worked out at 100%.
With `CCN(CC)CCNC(=O)c1cc(Cl)c(N)cc1OC(C)(C)C(C)=O.O` [Example 31, 4-Amino-5-chloro-N-[2-(diethylamino)ethyl]-2-[(3-methyl)butan-2-on-3-yl]oxybenzamide monohydrate], the ED50 in test [1] (setting [3]) was over 3 mg/kg. Moreover, the inhibition in vivo at 1 mg/kg with Cisplatin-Induced Emesis (i.v. × 2) was determined as 67%.
Consider `CCN(CC)CCNC(=O)c1cc(Cl)c(N)cc1OCC(O)Cc1ccccc1` (centres unmarked) [Example 33, 4-Amino-5-chloro-N-[2-(diethylamino)ethyl]-2-[2-(2-hydroxy-3-phenylpropyl)]oxybenzamide], for which the ED50 in test [1] (setting [3]) was over 3 mg/kg. In the test with Cisplatin-Induced Emesis (i.v. × 2), the inhibition in vivo at 1 mg/kg stood at 54%.
In the case of `CCN(CC)CCNC(=O)c1cc(Cl)c(N)cc1OCC1OCCO1` [Example 43], the ED50 in test [1] (setting [3]) is over 3 mg/kg. The inhibition in vivo at 3 mg/kg with Cisplatin-Induced Emesis (3 mg/kg, i.v. × 2) was found to be 67%.
For the compound `CCN(CC)CCNC(=O)c1cc(Cl)c(N)cc1OCc1ccccn1` [Example 45, 4-Amino-5-chloro-N-[2-(diethylamino)ethyl]-2-(2-pyridinomethyl)oxybenzamide], the ED50 in test [1] (setting [3]) is over 3 mg/kg. Besides, the inhibition in vivo at 3 mg/kg in the test on Cisplatin-Induced Emesis (3 mg/kg, i.v. × 2) came out at 80%.
`CCN(CC)CCNC(=O)c1cc(Cl)c(N)cc1OCCOCCOC` [Example 46, 4-Amino-5-chloro-N-[2-(diethylamino)ethyl]-2-(2-methoxyethoxyethyl)oxybenzamide]: the ED50 in test [1] (setting [3]) is over 3 mg/kg. In addition, the inhibition in vivo at 3 mg/kg in the test with Cisplatin-Induced Emesis (3 mg/kg, i.v. × 2) came out at 76%.

The values are drawn from patent US4820715A, “Anti-emetic quinuclidinyl benzamides” (Bristol-Myers Company, priority 1987, dated 1989).
